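Following 48 hours of exposure in 96-well plates, responses at five concentrations were used to interpolate endpoints linearly. The concentration for 50% growth inhibition is given as GI50.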 The source made the active and inactive calls. Cut-off read from the data, not from the text of the source: active = GI50 up to about 1.1 µM and inactive = higher.
Legend:
Experiment in all cases: NCI anticancer screen, dose series, 48 h
[1] = test system: HCT-116
[2] = test system: SNB-19
[3] = test system: SK-OV-3
[4] = test system: SK-MEL-5
[5] = test system: UACC-62
[6] = test system: HCC 2998
[7] = test system: SF-539
[8] = test system: EKVX
[9] = test system: TK-10
[10] = test system: NCI-H522
[11] = test system: 786-0
[12] = test system: LOX IMVI
[13] = test system: KM12
[14] = test system: CCRF-CEM
[15] = test system: UACC-257
[16] = test system: HT-29
[17] = test system: SNB-75
[18] = test system: CAKI-1

Measured: GI50

CC(C)C(Sc1nc(-c2ccccc2)c(-c2ccccc2)[nH]1)c1n[nH]c(=S)n1-c1ccccc1 (configuration not stated)
inactive: [1] 41.6 µM | [2] 25 µM | [3] 40.3 µM | [4] 17.7 µM | [5] 11.5 µM | [6] 28.4 µM | [7] 22.4 µM | [8] 26.2 µM | [9] 45 µM | [10] 21 µM | [11] 30.8 µM | [12] 17.5 µM | [13] 16.1 µM | [14] 23.9 µM | [15] 31.7 µM | [16] 23.8 µM | [17] 66.5 µM

CC(C)(C)OP(=O)(OC(C)(C)C)C(O)c1ccc(/C=C(\C#N)C(N)=O)cc1 (configuration not stated)
inactive: [1] > 100 µM | [2] > 100 µM | [3] > 100 µM | [5] > 100 µM | [6] > 100 µM | [7] > 100 µM | [8] > 100 µM | [9] > 100 µM | [10] > 100 µM | [11] > 100 µM | [12] > 100 µM | [18] > 100 µM | [13] > 100 µM | [14] > 100 µM | [15] > 100 µM | [16] > 100 µM | [17] > 100 µM

N#C/C(=C1\SC(/N=N/c2ccc(Cl)cc2)C(=O)N1c1ccccc1)c1nc2ccccc2[nH]1 (configuration not stated)
inactive: [1] 46 µM | [2] 30.1 µM | [3] 15.5 µM | [4] 35 µM | [5] 31.4 µM | [7] 32.4 µM | [8] 47.3 µM | [9] 24.9 µM | [10] 23.8 µM | [11] 13.7 µM | [12] 15 µM | [18] 48.4 µM | [14] 16.9 µM | [15] 27.3 µM | [16] 63.8 µM | [17] 25.9 µM

C=CC[P@@]1(=O)O[C@H](c2ccccc2)C(C)N1C(C)C (some centres not stated)
inactive: [2] > 100 µM | [3] > 100 µM | [4] > 100 µM | [5] > 100 µM | [6] > 100 µM | [7] > 100 µM | [8] > 100 µM | [9] > 100 µM | [11] > 100 µM | [12] > 100 µM | [13] > 100 µM | [14] > 100 µM | [16] > 100 µM | [17] > 100 µM

CN1/C(=C/C(=O)c2ccc(Cl)cc2)Nc2ccccc21
inactive: [1] 45.7 µM | [2] 41.6 µM | [4] 25.5 µM | [5] 44.3 µM | [6] 56 µM | [7] 58.7 µM | [8] 23.1 µM | [10] 19.1 µM | [11] 65.6 µM | [12] 39.3 µM | [18] 20 µM | [13] 42.4 µM | [14] 34.8 µM | [15] 31.9 µM | [16] 50.7 µM | [17] > 100 µM

Cc1ccc(S(=O)(=O)NC(=O)C2S(=O)(=O)OCCOS2(=O)=O)cc1
inactive: [1] > 100 µM | [2] > 100 µM | [3] > 100 µM | [4] > 100 µM | [5] > 100 µM | [6] > 100 µM | [7] > 100 µM | [8] > 100 µM | [9] > 100 µM | [10] > 100 µM | [11] > 100 µM | [18] > 100 µM | [13] > 100 µM | [14] > 100 µM | [15] > 100 µM | [16] > 100 µM | [17] > 100 µM

COc1cc(/C=C\c2ccccc2)cc(OC)c1OC
inactive: [1] 4.78 µM | [2] 6.08 µM | [4] 3.08 µM | [5] 2.49 µM | [6] 11.8 µM | [7] 2.56 µM | [8] 6.01 µM | [9] 3.94 µM | [10] 2.67 µM | [11] 5.08 µM | [12] 4.6 µM | [18] 4.36 µM | [13] 4.04 µM | [14] 2.99 µM | [15] 5.14 µM | [16] 2.75 µM | [17] 2.1 µM

O=S(=O)(O)c1ccc(/N=N/c2nc(C(F)(F)F)c(C(F)(F)F)[nH]2)cc1
inactive: [1] 37.7 µM | [2] 29.9 µM | [3] > 100 µM | [4] > 100 µM | [5] 28.4 µM | [7] 29.6 µM | [8] 43.5 µM | [9] > 100 µM | [11] > 100 µM | [12] 15.8 µM | [18] 29.2 µM | [13] > 100 µM | [14] 45.4 µM | [15] 69.5 µM | [16] 77.1 µM | [17] 75.9 µM

COc1cc(/C=C/c2ccc(OC(C)=O)cc2)cc(OC)c1OC
inactive: [1] 26.9 µM | [2] 34 µM | [4] 18.6 µM | [5] 15.4 µM | [7] 18.6 µM | [8] 26.3 µM | [9] 31.9 µM | [10] 17.9 µM | [11] 25.4 µM | [12] 29.2 µM | [18] 27.9 µM | [13] 32 µM | [14] 11.6 µM | [15] 33.4 µM | [16] 34.9 µM

Cn1c(CBr)nc2c1C(=O)c1nc(CBr)[nH]c(=O)c1C2=O
inactive: [1] > 100 µM | [3] > 100 µM | [4] > 100 µM | [5] > 100 µM | [7] > 100 µM | [8] > 100 µM | [9] > 100 µM | [10] > 100 µM | [11] > 100 µM | [12] 50.1 µM | [18] > 100 µM | [14] 40.5 µM | [16] > 100 µM

COc1ccc(/C(=N/NC(=O)NN)C(c2ccc(OC)cc2)C2(O)CNc3c(Cl)cc(Cl)cc32)cc1 (configuration not stated)
inactive: [1] 50.9 µM | [2] > 100 µM | [3] 81.8 µM | [4] > 100 µM | [5] 99.1 µM | [6] > 100 µM | [7] > 100 µM | [8] > 100 µM | [9] > 100 µM | [10] > 100 µM | [11] > 100 µM | [12] > 100 µM | [13] > 100 µM | [14] 88.9 µM | [15] > 100 µM | [16] 89.9 µM | [17] > 100 µM

CC(C)=CC(=O)c1c(C(=O)O)nc2ccccc2[n+]1[O-]
inactive: [1] > 100 µM | [2] > 100 µM | [3] > 100 µM | [4] > 100 µM | [5] > 100 µM | [6] > 100 µM | [7] > 100 µM | [8] > 100 µM | [9] > 100 µM | [11] > 100 µM | [12] > 100 µM | [18] > 100 µM | [13] > 100 µM | [14] > 100 µM | [15] > 100 µM | [16] > 100 µM | [17] > 100 µM

From ChEMBL document CHEMBL1201862, “PubChem BioAssay data set” (2004)
